The text below walks through data of US20170157013A1, “Metal Amino Acid Complexes for Bacterial Aggregation” (Colgate-Palmolive Company, priority 2015, published 2017).

In data set [1] the test system is A. viscous bacteria. As to the kind of experiment: Quantitative bacterial aggregation by absorbance at 610 nm, A. viscous. Type of data set: cell-based. Particulars: for final test result, absorbance at 610 nm: A. viscous, end of experiment.
The subject of data set [2] is oral bacteria in stimulated whole saliva. Nature of the data set: Aggregation of oral bacteria in stimulated whole saliva, culture dish wells. It counts as cell-based, human. The following applies: 15 minutes at room temperature. As to the method:
Stimulated whole saliva from a human volunteer was harvested and mixed either with an untreated control (water), metal salt solutions (0.2% zinc oxide or 0.1% zinc oxide/0.05% zinc citrate mixture), amino acid solutions (0.3% arginine, 1% arginine, or 0.94% lysine), or metal-amino acid complex solutions (1.2% zinc-lysine complex, 1.33% zinc-arginine complex, or 1% copper-lysine complex) as described in the present disclosure. The solutions were incubated for 15 minutes at room temperature in culture dish wells, then photographs were taken.

Data set [3] deals with Streptococcus oralis. As to the kind of experiment: Quantitative bacterial aggregation by absorbance at 610 nm, S. oralis. It counts as cell-based. Particulars: for OD610: 0.9% NaCl; for change in OD (610 nm) over the course of the experiment / time by which significant drop in absorbance has occurred / time of peak of absorbance: S. oralis; for change in OD (610 nm) over the course of the experiment: about one hour. As for the experimental part:
To evaluate the aggregation quantitatively, Streptococcus oralis bacteria was suspended in sterile 0.9% NaCl medium in capped culture tubes. To each tube, a different test sample was added, and the absorbance of the medium at […] was monitored over a period of about one hour. Bacteria of this size will remain suspended in solution for several hours before settling out under gravity. This gives such a solution a uniform haziness or opacity that can be quantified by measuring the absorbance of the solution at 610 nm. The aggregation of bacteria results in clumps of bacterial matter, which initially raises absorbance, followed by a sharp drop in absorbance as the bacterial matter settles out, leaving an increasingly transparent solution. Therefore, a decrease in absorbance signals the formation of bacterial aggregates.

Data set [4] can be described thus: Stability of ZLC in solution (low-pH preparation). Type of data set: physicochemical. The following applies: final reaction mixture, clear, slightly acidic pH (<pH 7). As for the experimental part:
In an alternative method, lysine HCl (2 molar equivalents) is dissolved in deionized water with stirring at room temperature. Concentrated hydrochloric acid equal to approximately 0.5 molar equivalent is added to the reaction mixture. ZnO (1 molar equivalent) is then added to the reaction mixture, and the mixture is stirred until complete dissolution occurs, typically within a minutes to a few hours. The pH of the reaction is kept at 6 or below. The ZLC complex can be kept in solution in the final reaction mixture, which is clear, for more than 3 months at slightly acidic pH (i.e., <pH 7) without precipitation of ZnO. Alternatively, the reaction mixture can be spray dried to yield ZLC powder, or the reaction mixture can be adjusted to a near-neutral pH (e.g., 6.8), and the crystalline salt of ZLC can be isolated upon slow evaporation of the concentrated ZLC reaction mixture.

Where [5] appears, read: 1 minute, 1.5% arginine, 0.94% lysine, 0.35% ZnCl2, 1.2% Zn-Lysine, 1.33% Zn-Arg.
Where [6] appears, read: 14 minutes, 1.5% arginine, 0.94% lysine, 0.35% ZnCl2, 1.2% Zn-Lysine, 1.33% Zn-Arg.
[7] abbreviates: 27 minutes, 1.5% arginine, 0.94% lysine, 0.35% ZnCl2, 1.2% Zn-Lysine, 1.33% Zn-Arg.
Setting [8] is: 46 minutes, 1.5% arginine, 0.94% lysine, 0.35% ZnCl2, 1.2% Zn-Lysine, 1.33% Zn-Arg.
The mark [9] stands for this setting: 66 minutes, 1.5% arginine, 0.94% lysine, 0.35% ZnCl2, 1.2% Zn-Lysine, 1.33% Zn-Arg.
The mark [10] stands for this setting: 0.2% zinc oxide, 0.1% zinc oxide/0.05% zinc citrate, 0.3% arginine, 0.94% lysine, 1.2% zinc-lysine, 1.33% zinc-arginine, 1% copper-lysine.
[11] abbreviates: 1 minute, 1.5% arginine, 0.94% lysine, 0.35% ZnCl2, 1.2% Zn-Lys, 1.33% Zn-Arg.
Setting [12] is: 9 minutes, 1.5% arginine, 0.94% lysine, 0.35% ZnCl2, 1.2% Zn-Lys, 1.33% Zn-Arg.
[13] abbreviates: 21 minutes, 1.5% arginine, 0.94% lysine, 0.35% ZnCl2, 1.2% Zn-Lys, 1.33% Zn-Arg.
Setting [14] is: 28 minutes, 1.5% arginine, 0.94% lysine, 0.35% ZnCl2, 1.2% Zn-Lys, 1.33% Zn-Arg.
Setting [15] is: 40 minutes, 1.5% arginine, 0.94% lysine, 0.35% ZnCl2, 1.2% Zn-Lys, 1.33% Zn-Arg.
Setting [16] is: 55 minutes, 1.5% arginine, 0.94% lysine, 0.35% ZnCl2, 1.2% Zn-Lys, 1.33% Zn-Arg.
Setting [17] is: 1.5% arginine, 0.94% lysine, 0.35% zinc chloride, 1.2% zinc-lysine complex, 1.33% zinc-arginine complex.
The mark [18] stands for this setting: 1.2% zinc-lysine complex, 1.33% zinc-arginine complex.

Consider `N=C(N)NCCC[C@H](N)C(=O)O` [Arginine, arginine], for which the OD610 in data set [1] (setting [5]) is recorded as 0.438; in data set [1] (1 minute, 5% arginine), 0.341; in data set [1] (setting [6]), 0.432; in data set [1] (14 minutes, 5% arginine) it was 0.334; in data set [1] (setting [7]) it was 0.427; in data set [1] (27 minutes, 5% arginine), 0.335. For the same compound, the OD610 was found to be 0.418 in data set [1] (setting [8]); 0.333 in data set [1] (46 minutes, 5% arginine); 0.424 in data set [1] (setting [9]); 0.333 in data set [1] (66 minutes, 5% arginine); 0.492 in data set [3] (setting [11]); 0.496 in data set [3] (1 minute, 5% arginine). The OD610 is 0.473 in data set [3] (setting [12]); 0.468 in data set [3] (9 minutes, 5% arginine); 0.455 in data set [3] (setting [13]); 0.450 in data set [3] (21 minutes, 5% arginine); 0.449 in data set [3] (setting [14]); 0.446 in data set [3] (28 minutes, 5% arginine). In addition, the OD610 is reported as 0.441 in data set [3] (setting [15]); 0.440 in data set [3] (40 minutes, 5% arginine); 0.428 in data set [3] (setting [16]); 0.435 in data set [3] (55 minutes, 5% arginine). Besides, the “observation of aggregate formation in saliva” value (shortened to “observation”) in data set [2] (setting [10]) and in data set [2] (1% arginine) was “no change was observed compared to the negative control” each time. Besides, the “change in OD (610 nm) over the course of the experiment” value (“change in OD (610 nm) over the course” for short) in data set [3] (setting [17]) and in data set [3] (5% arginine) was “no appreciable change in OD (610 nm) or a rise in OD (610 nm)” each time.

With `NCCCC[C@H](N)C(=O)O` [Lysine, lysine], the OD610 in data set [1] (setting [5]) came to 0.416; in data set [1] (setting [6]), 0.413; in data set [1] (setting [7]) it was 0.411; in data set [1] (setting [8]), 0.410; in data set [1] (setting [9]), 0.409; in data set [3] (setting [11]) it was 0.537. Further, the OD610 in data set [3] (setting [12]) is reported as 0.547; in data set [3] (setting [13]), 0.552; in data set [3] (setting [14]) it was 0.553; in data set [3] (setting [15]), 0.555; in data set [3] (setting [16]), 0.555. Besides, in data set [2] (setting [10]), the “observation” value is recorded as “no change was observed compared to the negative control”. Further, in data set [3] (setting [17]), the “change in OD (610 nm) over the course” value is given as “no appreciable change in OD (610 nm) or a rise in OD (610 nm)”.

`Cl.Cl.NCCCCC(N)C(=O)[O-].NCCCCC(N)C(=O)[O-].O.O.[Zn+2]` (centres unmarked) [ZLC, zinc-lysine-chloride complex]: the OD610 in data set [1] (setting [5]) worked out at 0.454; in data set [1] (setting [6]), 0.554; in data set [1] (setting [7]), 0.175; in data set [1] (setting [8]) it was 0.032; in data set [1] (setting [9]) it was 0.014; in data set [3] (setting [11]), 0.549. For the same compound, the OD610 in data set [3] (setting [12]) was 0.551; in data set [3] (setting [13]), 0.574; in data set [3] (setting [14]), 0.515; in data set [3] (setting [15]) it was 0.357; in data set [3] (setting [16]), 0.182. The “final test result, absorbance at 610 nm” value in data set [1] was “nearly zero absorbance”. For the same compound, the “time kept in solution without precipitation of ZnO” value in data set [4] is recorded as “more than 3 months”. In addition, the “observation” value in data set [2] (setting [10]) was “Large aggregates of material slowly formed and settled to the bottom of the dishes”. Besides, the “change in OD (610 nm) over the course” value in data set [3] (setting [17]) is given as “peak of absorbance at about 21 minutes, followed by a significant drop”. For the same compound, in data set [3] (setting [18]), the “time by which significant drop in absorbance has occurred” value is “about 55 minutes”. The “time of peak of absorbance” value in data set [3] (setting [18]) is given as “about 21 minutes”.

As to `[Cl-].[Cl-].[Zn+2]` [ZnCl2, zinc chloride], the OD610 turned out to be 0.315 in data set [1] (setting [5]); 0.315 in data set [1] (setting [6]); 0.316 in data set [1] (setting [7]); 0.391 in data set [1] (setting [8]); 0.255 in data set [1] (setting [9]); 0.572 in data set [3] (setting [11]). For the same compound, the OD610 worked out at 0.584 in data set [3] (setting [12]); 0.615 in data set [3] (setting [13]); 0.680 in data set [3] (setting [14]); 0.652 in data set [3] (setting [15]); 0.397 in data set [3] (setting [16]). The “change in OD (610 nm) over the course” value in data set [3] (setting [17]) is listed as “no appreciable change in OD (610 nm) or a rise in OD (610 nm)”.

`[O]=[Zn]` [zinc oxide]: the “observation” value in data set [2] (setting [10]) is “only undissolved and/or precipitated metal salt”.

As to copper-lysine complex, in data set [2] (setting [10]), the “observation” value is “Large aggregates of material slowly formed and settled to the bottom of the dishes”.

For the compound zinc-arginine complex [Zn-Arg], the OD610 in data set [1] (setting [5]) is 0.436; in data set [1] (setting [6]) it was 0.474; in data set [1] (setting [7]) it was 0.623; in data set [1] (setting [8]) it was 0.369; in data set [1] (setting [9]), 0.025; in data set [3] (setting [11]), 0.563. Also, the OD610 turned out to be 0.568 in data set [3] (setting [12]); 0.575 in data set [3] (setting [13]); 0.620 in data set [3] (setting [14]); 0.616 in data set [3] (setting [15]); 0.361 in data set [3] (setting [16]). Moreover, the “final test result, absorbance at 610 nm” value in data set [1] is recorded as “nearly zero absorbance”. Moreover, in data set [2] (setting [10]), the “observation” value is “Large aggregates of material slowly formed and settled to the bottom of the dishes”. Besides, the “change in OD (610 nm) over the course” value in data set [3] (setting [17]) is given as “brief rise in absorbance which peaks at about 28 minutes, followed by a significant drop in absorbance”. Moreover, in data set [3] (setting [18]), the “time by which significant drop in absorbance has occurred” value is “about 55 minutes”. The “time of peak of absorbance” value in data set [3] (setting [18]) is “about 28 minutes”.
